Test system: MCF7 cells
Assay: Cytotoxic reagent assay: Doxorubicin, MTT live cells and 41/7 ELISA
Type: cell-based
Details: 450 nM, 1-96 hours, MCF7, FIG. 7
Procedure: 2. In this experiment, the effect of a known cancer chemotherapeutic agent (Doxorubicin, Sigma Inc.) on soluble nuclear matrix protein release into extracellular fluid was assessed.
A standard curve for live cells was established with MCF7 cells (breast carcinoma, adherent). Cells were seeded into 6 well plates in 2 mls of DME complete (5% FCS+SerXtend) with 0.5 micrograms/ml mitomycin C (Sigma, Inc., Cincinnati) to prevent any cell growth.
After incubating overnight at 37° C., 200 μl of 3-[4, 5 Dimethylthiazol-2-4] 2, 5-dipheny(tetrazoluim bromide), MTT, stock solution (5 mg/ml MTT in phosphate-buffered saline, Sigma, Inc.) were added to each well. After the plates were incubated for four hours at 37° C. and 5% CO2 the supernatants were aspirated off and 4 mls of DMSO (dimethyl sulfoxide) were added to solubilize remaining crystals. This was drawn off and the absorbance was read in the spectrophotometer at 562 nm against a blank of straight DMSO.
Cells were treated with Doxorubicin as follows: MCF7 cells were seeded into 6 well plates at a density of 1.3×10^5 cells/well in 2 mls DME complete. […]
At 1, 24, 48, 72, and 96 hours, the supernatants were removed and frozen at −20° C. to assay later. After replacing the supernatant with a fresh 2 ml of DME complete, the number of live cells was determined using the same procedure as for the standard curve. […]

SMILES: COc1cccc2c1C(=O)c1c(O)c3c(c(O)c1C2=O)C[C@@](O)(C(=O)CO)C[C@@H]3O[C@H]1C[C@H](N)[C@H](O)[C@H](C)O1 [Doxorubicin]
- cell viability (MTT live cells) versus nuclear matrix protein released (41/7 ELISA): inversely related to nuclear matrix protein released
